Data published in patent US20150182546A1, “THERAPEUTIC AGENT FOR ENHANCING MITOCHONDRIAL FUNCTION” (Mitochondrial Concepts LLC, priority 2013, published 2015).

Legend:
Assay type in all cases: in vivo, human
[1] = test system: pseudohypertrophic muscular dystrophy patients; assay: Treatment of pseudohypertrophic muscular dystrophy patients with 4SAS
[2] = test system: ALS patient; assay: Treatment of an ALS patient with oral 4SAS; conditions: ALS patient previously unable to speak; oral dosage
[3] = test system: patient of advanced age; assay: Treatment of a patient of advanced age with oral 4SAS; conditions: patient in early 70s; oral dosage
[4] = Oral administration of adenylosuccinate in clinical trials
Description: The administration of the adenylosuccinate may be accomplished via several approaches. It is possible to administer adenylosuccinate by means of a sub-cutaneous pump. […] Alternatively, adenylosuccinate might be suitably packaged for timed release or trans-dermal application.

| SMILES | Improved? ([1]; Patient A, severity 1, therapy 81-89, 1 mg-10 mg, 10-20 mg, 100 mg, 200 mg) | Improved? ([1]; Patient C, severity 3, therapy 81-84, 1 mg-10 mg, 10-20 mg) | Improved? ([1]; Patient D, severity 4, therapy 81-84, 1 mg-10 mg, 10-20 mg) | Improved? ([1]; Patient E, severity 5, therapy 81-84, 1 mg-10 mg, 10-20 mg) | Improved? ([1]; Patient F, therapy 88-89, 70 mg) | Improved? ([1]; Patient G, therapy 87-89, 150 mg, 333 mg) | Improved? ([1]; Patient H, therapy 88-89, 200 mg, 300 mg) | Improved? ([1]; Patient I, therapy 86-89, 10 mg, 25 mg, 100 mg) | Improved? ([1]; Patient J, therapy 86-89, 1200 mg) | Improved? ([1]; Patient K, therapy 87-89, 200 mg, 300 mg) | Improved? ([1]; Patient L, therapy 87-89, dosage small) | Improved? ([1]; Patient N, therapy 89-89, 300 mg) | strength and related functionality ([1]; thirteen young PMD patients at various stages, intraperitoneal, subcutaneous and oral dosages) | capacity to speak [2] | energy [3] | healing [3] | posture [3] | efficacy of oral administration [4] |
| --- | --- | --- | --- | --- | --- | --- | --- | --- | --- | --- | --- | --- | --- | --- | --- | --- | --- | --- |
| O=C([O-])C[C@H](Nc1ncnc2c1ncn2[C@@H]1O[C@H](COP(=O)([O-])[O-])[C@@H](O)[C@H]1O)C(=O)[O-].[Na+].[Na+].[Na+].[Na+] [4SAS, tetrasodium adenylosuccinate] | Yes | Yes | Yes | Yes | Yes | Yes | Yes | Yes | Yes | Yes | Yes | Yes | increased strength and related functionality | temporarily regained capacity to speak intelligibly | increased energy | accelerated healing | improved posture | – |
| O=C(O)CC(Nc1ncnc2c1ncn2[C@@H]1O[C@H](COP(=O)(O)O)[C@@H](O)[C@H]1O)C(=O)O (stereo partly drawn) [adenylosuccinate] | – | – | – | – | – | – | – | – | – | – | – | – | – | – | – | – | – | proven efficacious |
